# Measured values from patent US20240382600A1, “BIFUNCTIONAL DEGRADERS COMPRISING A TEAD BINDER” (Novartis AG, priority 2021, published 2024).
# Assays:
# [1] = system: YAP-dependent transcription in SF268-MCAT_Luc_dox-i-shYAPLevy (Clone 13) cells; assay: YAP reporter gene activity assay (MCAT-Luc), SF268; assay type: cell-based; settings: SF268 MCAT_Luc, 24 hrs
# [2] = system: YAP-dependent transcription in NCI-H2052 Tet-On shYAP_2371 pLenti6 MCAT_Luc cells; assay: YAP reporter gene activity assay (MCAT-Luc), NCI-H2052; assay type: cell-based; settings: 24 hrs
# [3] = system: NCI-H2052 Tet-On shYAP_2371 pLenti6 MCAT_Luc cells; assay: Proliferation assay (resazurin/AlamarBlue), NCI-H2052; assay type: cell-based; settings: NCI-H2052, 72 hours
# Excerpt: (§1) NCI-H2052 mesothelioma cells (RRID: CVCL_1518) bearing Hippo-pathway inactivating mutations upstream of YAP (homozygous deletion of LATS2 and mutation of NF2) were obtained from ATCC (American Type Culture Collection), while SF268 glioma cells (RRID: CVCL_1689) overexpressing YAP due to genomic amplification were obtained from the NCI (National Cancer Institute). MKN-45 gastric adenocarcinoma cells (RRID: CVCL_0434) genomically deleted for YAP were obtained from the JCRB (Japanese Collection of Research Bioresources) Cell Bank.
# (§2) Stock solutions of compounds were prepared at a concentration of 10 mM in DMSO and stored at 4° C. Where necessary to afford a full dose-response curve, the stock solutions were pre-diluted in DMSO to 1′000-fold the desired reduced start concentration. On the day after cell seeding, eleven 2-fold serial dilutions of each compound were dispensed directly into the cell assay plates using a HP 300D non-contact Digital Dispenser (TECAN). The final concentration of DMSO was normalized to 0.1% in all wells.
# (§3) After incubation for 72 hours at 37° C., compound-mediated modulation of cell viability was quantified as follows. […] To enable differentiation of cytotoxic from cytostatic compound effects, the number of viable cells on the day of compound addition (day 0) was assessed in a separate cell plate and used to assess the extent of cell viability suppression as described in the following section.
# (§4) For data analysis, the assay background value determined in wells containing medium, but no cells, was subtracted from all data points.
# (§5) The extent of growth inhibition and potential cell kill was assessed by comparing the resorufin levels in compound-treated cells with those present at the time of compound addition. To this end, the following conditional concept was programmatically applied in HELIOS to calculate % growth (% G) for each compound-treated well: % G=(T−V0)/V0))*100 when T<V0, and % G=(T−V0)/(V−V0)))*100 when T≥V0, where V0 is the viability level at time of compound addition, while V and T represent vehicle-control and compound-treated viability levels, respectively, at the end of the compound incubation. 100%, 0% and −100% signify absence of growth inhibition, growth stasis, and complete cell kill, respectively. Compound concentrations leading to half-maximal growth inhibition (GI50) and residual cell viability at the highest tested compound concentration (Data(cmax), expressed in percent) were routinely calculated.
# [4] = target: Avi-humanTEAD4^217-434 / Cy5 labeled humanYAP^60-100 (Homo sapiens (Human), UniProt Q15561); assay: In-vitro biochemical TR-FRET assay (TEAD4/YAP); assay type: binding; settings: 1 h at room temperature
# Sequence of Avi-humanTEAD4^217-434 / Cy5 labeled humanYAP^60-100 (Q15561 217-434): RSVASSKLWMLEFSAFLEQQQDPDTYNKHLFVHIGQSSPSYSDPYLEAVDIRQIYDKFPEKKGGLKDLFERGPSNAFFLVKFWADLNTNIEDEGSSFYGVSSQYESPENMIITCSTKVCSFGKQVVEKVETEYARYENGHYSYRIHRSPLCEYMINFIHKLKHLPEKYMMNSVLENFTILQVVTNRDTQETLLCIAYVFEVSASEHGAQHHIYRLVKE
# Method: N-terminus Cy5 labeled humanYAP^60-100 (20 nM) was then added to this preparation. Compounds were dissolved at 10 mM in 100% DMSO and serial dilutions were made in 100% DMSO. The diluted compound solutions were incubated in white 384-well plates (Greiner Bio-One) for 1 h at room temperature with the above described mix. The final DMSO concentration present in the assay was 1%. […] The IC50 values were estimated by fitting the data by nonlinear fit regression (GraphPad Prism).
# [5] = system: SF268-MCAT_Luc_dox-i-shYAPLevy (Clone 13) cells; assay: Proliferation assay (resazurin/AlamarBlue), SF268; assay type: cell-based; settings: SF268, 72 hours
# Excerpt: as §1, §2, §3, §4, §5
# [6] = system: MKN-45/Ubc-luc cells (unspecific inhibition of luciferase expression or activity); assay: Reporter gene assay specificity control (Ubc-Luc), MKN-45; assay type: cell-based; settings: MKN-45/Ubc-luc specificity control, 24 hrs
# Excerpt: as §1
# As a specificity control, MKN-45 cells were stably transduced with a Ubc-Luc reporter construct, in which constitutive expression of firefly luciferase is driven by the promoter of the ubiquitin C housekeeping gene. The resulting cell line, MKN-45/Ubc-luc, was selected and maintained in growth medium (RPMI 1640 (Amimed Cat #1-41F01-I), 2 mM L-Glutamine (Amimed Cat #5-10K50-H), 10% fetal calf serum (Amimed Cat #2-01F30-I Lot K08815P), 1% MEM Non-essential amino acids (Amimed Cat #5-13K00-H), 1× Penicillin/Streptomycin (Amimed Cat #4-01F00-H)) containing 1 μg/ml blasticidin (Gibco Cat #A11139-03).
# as §2
# The ability of compounds to inhibit YAP-dependent transcription was assessed in NCI-H2052 Tet-On shYAP_2371 pLenti6 MCAT_Luc and SF268-MCAT_Luc, dox-i-shYAPLevy (Clone 13) cells, while specificity (lack of unspecific inhibition of luciferase expression or activity) was assessed in MKN-45/Ubc-luc cells. The individual cell lines were seeded at 2′500 cells/20 μl/well into white-wall, clear-bottom 384-well plates (Greiner, Cat #781098) and incubated over night at 37° C. prior to addition of serial compound dilutions as described above. Following incubation for 24 hrs at 37° C., compound-mediated modulation of reporter-gene activity was quantified 5 min after addition 20 μL […] BrightGlo (Promega Cat #E2620), by measuring luminescence intensity on a multi-mode plate-reader (TECAN) with an integration time of 100 ms.
# as §4
# MKN-45/Ubc-luc cells = assay: Proliferation assay (resazurin/AlamarBlue), MKN-45; assay type: cell-based; settings: MKN-45, 72 hours
# Excerpt: as §1
# As a specificity control, MKN-45 cells were stably transduced with a Ubc-Luc reporter construct, in which constitutive expression of firefly luciferase is driven by the promoter of the ubiquitin C housekeeping gene.
# as §2, §3, §4, §5
SMILES,"IC50 ([1]; Homo sapiens, SF-268)",IC50 ([2]; Homo sapiens),GI50 ([3]; Homo sapiens),IC50 [4],"GI50 ([5]; Homo sapiens, SF-268)",IC50 ([6]; Homo sapiens),GI50 (MKN-45/Ubc-luc cells; Homo sapiens),IC50 [1],IC50 [2],GI50 [3],GI50 [5],IC50 [6],GI50 (MKN-45/Ubc-luc cells)
"CNC(=O)c1cnc(OCCOCCOCCn2cc(-c3cccc(N4CCC(=O)NC4=O)c3)nn2)c(F)c1-c1c(Cl)c(F)cc2c1C[C@](c1ccccc1)([C@@H]1CCCN1)O2 (atropisomer, axis not shown) [Example 34, 4-((2S,4S)-5-chloro-6-fluoro-2-phenyl-2-((S)-pyrrolidin-2-yl)-2,3-dihydrobenzofuran-4-yl)-6-(2-(2-(2-(4-(3-(2,4-dioxotetrahydropyrimidin-1(2H)-yl)phenyl)-1H-1,2,3-triazol-1-yl)ethoxy)ethoxy)ethoxy)-5-fluoro-N-methylnicotinamide]",3530 nM,2800 nM,2270 nM,6.9 nM,19300 nM,> 20 µM,> 20 µM,–,–,–,–,–,–
"COc1ccc(C(N)=O)c(-c2c(Cl)c(F)cc3c2[C@H](C)[C@@](CN[C@H]2CC[C@H](C(=O)N4CCC(CC5CCN(C(=O)COc6cc(-c7scnc7C)ccc6CNC(=O)[C@@H]6C[C@@H](O)CN6C(=O)[C@@H](NC(=O)C6(F)CC6)C(C)(C)C)CC5)CC4)CC2)(c2ccccc2)O3)c1F (atropisomer, axis not shown) [Example 42, (2S,4R)-N-(2-(2-(4-((1-((1S,4r)-4-((((2S,3S,4S)-4-(6-carbamoyl-2-fluoro-3-methoxyphenyl)-5-chloro-6-fluoro-3-methyl-2-phenyl-2,3-dihydrobenzofuran-2-yl)methyl)amino)cyclohexane-1-carbonyl)piperidin-4-yl)methyl)piperidin-1-yl)-2-oxoethoxy)-4-(4-methylthiazol-5-yl)benzyl)-1-((S)-2-(1-fluorocyclopropane-1-carboxamido)-3,3-dimethylbutanoyl)-4-hydroxypyrrolidine-2-carboxamide]",0.45 nM,4.2 nM,31 nM,19 nM,31 nM,> 2 µM,> 0.2 µM,–,–,–,–,–,–
"COc1ccc(C(N)=O)c(-c2c(Cl)c(F)cc3c2[C@H](C)[C@@](CN[C@H]2CC[C@H](C(=O)N4CCC(C5CCN(C(=O)COc6cc(-c7scnc7C)ccc6CNC(=O)[C@@H]6C[C@@H](O)CN6C(=O)[C@@H](NC(=O)C6(F)CC6)C(C)(C)C)CC5)CC4)CC2)(c2ccccc2)O3)c1F (atropisomer, axis not shown) [Example 43, (2S,4R)-N-(2-(2-(1′-((1S,4r)-4-((((2S,3S,4S)-4-(6-carbamoyl-2-fluoro-3-methoxyphenyl)-5-chloro-6-fluoro-3-methyl-2-phenyl-2,3-dihydrobenzofuran-2-yl)methyl)amino)cyclohexane-1-carbonyl)-[4,4′-bipiperidin]-1-yl)-2-oxoethoxy)-4-(4-methylthiazol-5-yl)benzyl)-1-((S)-2-(1-fluorocyclopropane-1-carboxamido)-3,3-dimethylbutanoyl)-4-hydroxypyrrolidine-2-carboxamide]",2.3 nM,17 nM,73 nM,8.7 nM,68 nM,> 2 µM,> 0.2 µM,–,–,–,–,–,–
"COc1ccc(C(N)=O)c(-c2c(Cl)c(F)cc3c2[C@H](C)[C@@](CN[C@H]2CC[C@H](C(=O)OC)CC2)(c2ccccc2)O3)c1F [C-I-k, Methyl (1S,4r)-4-((((2S,3S,4S)-4-(6-carbamoyl-2-fluoro-3-methoxyphenyl)-5-chloro-6-fluoro-3-methyl-2-phenyl-2,3-dihydrobenzofuran-2-yl)methyl)amino)cyclohexane-1-carboxylate]",–,–,–,1.9 nM,–,–,–,33 nM,40 nM,27 nM,390 nM,14.3 µM,4.11 µM
"CNC(=O)c1cnc(OCCOCCn2cc(-c3ccc4c(c3)CN(C3CCC(=O)NC3=O)C4=O)nn2)c(F)c1-c1c(Cl)c(F)cc2c1C[C@](c1ccccc1)([C@@H]1CCCN1)O2 (stereo partly drawn) [Example 32, 4-((2S,4S)-5-Chloro-6-fluoro-2-phenyl-2-((S)-pyrrolidin-2-yl)-2,3-dihydrobenzofuran-4-yl)-6-(2-(2-(4-(2-(2,6-dioxopiperidin-3-yl)-1-oxoisoindolin-5-yl)-1H-1,2,3-triazol-1-yl)ethoxy)ethoxy)-5-fluoro-N-methylnicotinamide]",2750 nM,5900 nM,6290 nM,23 nM,> 20000 nM,> 20 µM,> 20 µM,–,–,–,–,–,–
"CNC(=O)c1cnc(OCCOCCOCCn2cc(-c3ccc4c(c3)CN(C3CCC(=O)NC3=O)C4=O)nn2)c(F)c1-c1c(Cl)c(F)cc2c1C[C@](c1ccccc1)([C@@H]1CCCN1)O2 (stereo partly drawn) [Example 33, 4-((2S,4S)-5-chloro-6-fluoro-2-phenyl-2-((S)-pyrrolidin-2-yl)-2,3-dihydrobenzofuran-4-yl)-6-(2-(2-(2-(4-(2-(2,6-dioxopiperidin-3-yl)-1-oxoisoindolin-5-yl)-1H-1,2,3-triazol-1-yl)ethoxy)ethoxy)ethoxy)-5-fluoro-N-methylnicotinamide]",1340 nM,3140 nM,4400 nM,94 nM,> 20000 nM,> 20 µM,> 20 µM,–,–,–,–,–,–
"COc1ccc(C(N)=O)c(-c2c(Cl)c(F)cc3c2[C@H](C)[C@@](CNCCCCCc2cccc4c2CN(C2CCC(=O)NC2=O)C4=O)(c2ccccc2)O3)c1F (stereo partly drawn) [Example 35, 2-((2S,3S,4S)-5-chloro-2-(((5-(2-(2,6-dioxopiperidin-3-yl)-1-oxoisoindolin-4-yl)pentyl)amino)methyl)-6-fluoro-3-methyl-2-phenyl-2,3-dihydrobenzofuran-4-yl)-3-fluoro-4-methoxybenzamide]",23 nM,32 nM,35 nM,7.2 nM,< 20 nM,0.044 µM,0.033 µM,–,–,–,–,–,–
"COc1ccc(C(=O)NCCCCCc2cccc3c2CN(C2CCC(=O)NC2=O)C3=O)c(-c2c(Cl)c(F)cc3c2C[C@@](CN)(c2ccccc2)O3)c1F (stereo partly drawn) [Example 36, 2-((2S,4S)-2-(aminomethyl)-5-chloro-6-fluoro-2-phenyl-2,3-dihydrobenzofuran-4-yl)-N-(5-(2-(2,6-dioxopiperidin-3-yl)-1-oxoisoindolin-4-yl)pentyl)-3-fluoro-4-methoxybenzamide]",9.3 nM,24 nM,160 nM,92 nM,8420 nM,8.76 µM,8.76 µM,–,–,–,–,–,–
